Assays:
Mus musculus [1] = test: Toxicity in Mus musculus albino (mouse) assessed as increase in horizontal activity at 100 mg/kg, ip; format: organism-based; design: dose 100 mg/kg, route intraperitoneal; settings: in vivo
Mus musculus [2] = test: Toxicity in Mus musculus albino (mouse) assessed as increase in total distance travelled at 100 mg/kg, ip; format: organism-based; design: dose 100 mg/kg, route intraperitoneal; settings: in vivo
Mus musculus [3] = test: Toxicity in Mus musculus albino (mouse) assessed as resting time at 100 mg/kg, ip; format: organism-based; design: dose 100 mg/kg, route intraperitoneal; settings: in vivo
Mus musculus [4] = test: Antidepressant-like activity in Mus musculus albino (mouse) assessed as immobility time at 100 mg/kg, ip measured after 30 min by forced swim test (reference value: 167 +/- 17 sec); format: functional; settings: route intraperitoneal
Mus musculus [5] = test: Antidepressant-like activity in Mus musculus albino (mouse) assessed as latency for first immobilization at 100 mg/kg, ip measured after 30 min by forced swim test (reference value: 68 +/- 13 sec); format: functional; settings: route intraperitoneal
Mus musculus [6] = test: Toxicity in Mus musculus albino (mouse) assessed as decrease in horizontal activity at 100 mg/kg, ip; format: organism-based; design: dose 100 mg/kg, route intraperitoneal; settings: in vivo
Mus musculus [7] = test: Toxicity in Mus musculus albino (mouse) assessed as decrease in total distance travelled at 100 mg/kg, ip; format: organism-based; design: dose 100 mg/kg, route intraperitoneal; settings: in vivo
Mus musculus [8] = test: Toxicity in Mus musculus albino (mouse) assessed as resting time at 10 mg/kg, ip; format: organism-based; design: dose 10 mg/kg, route intraperitoneal; settings: in vivo
Mus musculus [9] = test: Toxicity in Mus musculus albino (mouse) assessed as increase in horizontal activity at 10 mg/kg, ip; format: organism-based; design: dose 10 mg/kg, route intraperitoneal; settings: in vivo
Mus musculus [10] = test: Toxicity in Mus musculus albino (mouse) assessed as increase in total distance travelled at 10 mg/kg, ip; format: organism-based; design: dose 10 mg/kg, route intraperitoneal; settings: in vivo

SMILES	Activity (Mus musculus [1])	Activity (Mus musculus [2])	Activity (Mus musculus [3])	Time (Mus musculus [4])	Time (Mus musculus [5])	Activity (Mus musculus [6])	Activity (Mus musculus [7])	Activity (Mus musculus [8])	Activity (Mus musculus [9])	Activity (Mus musculus [10])
O=C(CSC(=S)N1CCOCC1)N1N=C(c2cccs2)CC1c1ccccc1 (stereo not drawn)	Toxic	Toxic	77%	148 s	73 s					
O=C(CSC(=S)N1CCSCC1)N1N=C(c2cccs2)CC1c1ccccc1 (stereo not drawn)	Toxic	Toxic	73%	84 s	72 s					
Cc1ccc(C2CC(c3cccs3)=NN2C(=O)CSC(=S)N2CCOCC2)cc1 (stereo not drawn)			89%	129 s	99 s	Toxic	Toxic			
Cc1ccc(C2CC(c3cccs3)=NN2C(=O)CSC(=S)N2CCSCC2)cc1 (stereo not drawn)			81%	113 s	60 s					
COc1ccc(C2CC(c3cccs3)=NN2C(=O)CSC(=S)N2CCOCC2)cc1 (stereo not drawn)			84%	139 s	94 s					
COc1ccc(C2CC(c3cccs3)=NN2C(=O)CSC(=S)N2CCSCC2)cc1 (stereo not drawn)	Toxic	Toxic	72%	134 s	80 s					
O=C(CSC(=S)N1CCOCC1)N1N=C(c2cccs2)CC1c1ccc(Cl)cc1 (stereo not drawn)			80%	112 s	36 s					
O=C(CSC(=S)N1CCSCC1)N1N=C(c2cccs2)CC1c1ccc(Cl)cc1 (stereo not drawn)			80%	136 s	77 s	Toxic	Toxic			
N[C@@H]1C[C@H]1c1ccccc1.N[C@H]1C[C@@H]1c1ccccc1 (racemic) [TRANYLCYPROMINE]								89%		
CN(C)CCCN1c2ccccc2CCc2ccc(Cl)cc21 [CLOMIPRAMINE]								73%	Toxic	Toxic
